# According to publication PMC3256188, “Novel Nonphosphorylated Peptides with Conserved Sequences Selectively Bind to Grb7 SH2 Domain with Affinity Comparable to Its Phosphorylated Ligand” (PLoS ONE, 2012):
# Non-standard residues stand in square brackets, D forms with d. No end group written: not given here. pY = N[C@@H](Cc1ccc(OP(=O)(O)O)cc1)C(=O)O
# T1: EGFP-Grb7 SH2 (human)
# T1 construct: SH2 domain of Grb7, inserted at the C terminus of the EGFP tag; also called GFP-Grb7 SH2 domain; Grb7 SH2 domain; source: HEK293T, transfected (calcium phosphate), in lysate; not shown: EGFP, N-terminal, kept
# T1 chain: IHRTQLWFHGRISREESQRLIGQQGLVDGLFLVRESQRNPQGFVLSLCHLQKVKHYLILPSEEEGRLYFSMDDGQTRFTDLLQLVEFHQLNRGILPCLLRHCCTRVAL
# B1: nonphosphorylated 41-A ligand (peptide)
# peptide: VAVGIPTQPTTSSEPSPPSNPPWDPGRV
# notes: stretch of peptide 41 with its first 22-residue motif; also called peptide 41-A; source: synthetic peptide (China Peptides Co., Ltd.)
# B2: phosphorylated ligand pY (1180) from ErbB3 (peptide)
# peptide: DEEYE[pY]MNRRR
# notes: ErbB3 stretch around Y1180; source: synthetic peptide (China Peptides Co., Ltd.)
# Assays:
# [1] = biological target: T2, GFP-Grb7 SH2 domain and 41-mRLUC-3×Flag complex (Homo sapiens, UniProt Q14451); assay: Competition immunoprecipitation, GFP-Grb7 SH2 domain and 41-mRLUC-3×Flag complex; type: binding
# T2 construct: expressed in transfected cells; host or cells: HEK293T
# From the text: To see whether the nonphosphorylated peptide could effectively compete with phosphorylated ligand for binding to the Grb7 SH2 domain, the phosphorylated ligand pY (1180) (DEEYEpY(1180)MNRRR), which was previously shown to interact with the Grb7 SH2 domain [6], and the nonphosphorylated 41-A ligand ([…]), which contains the first twenty-two amino acid-motif close to the N-terminus of peptide 41, were examine for their abilities to interfere with the GFP-Grb7 SH2 domain and 41-mRLUC-3×Flag complex using immunoprecipitation with anti-GFP antibody.
# The phosphorylated ligand pY (1180) (DEEYEpY(1180)MNRRR) from the ErbB3 and the nonphosphorylated peptide 41-A ([…] RV) from nonphosphorylated peptide 41 were synthesized by the China Peptides Co., Ltd. The HPLC purification analysis and MS quality analysis reports were obtained.
# HEK293T cells were washed 5 times with ice-cold PBS buffer and scraped off the plates into cell lysis buffer (1% Nonidet P-40, 0.02 M TRIS (pH 7.5), 0.15 M sodium chloride, 0.001 M EDTA, 0.5% sodium deoxycholate, 0.1% SDS and 0.001 M PMSF). Lysates were incubated on ice for 5 minutes, vortexed 2 times for 30 seconds each and centrifuged at 12,000 rpm for 15 minutes at 4°C. After centrifuging twice, the supernatant was incubated with anti-Flag antibody (1∶100, M20008M, Abmart, China) for 6–8 h at 4°C. Protein G agarose (40 µL) was added into 1 mL of the above mixture and coupled to the anti-Flag antibody for 3 h at 4°C. The immunoprecipitates were washed 2–3 times with PBS buffer (PH 7.4), and the sediments were diluted with 5×SDS electrophoresis buffer and heated at 97°C for 10 minutes. The proteins were separated by SDS-PAGE and transferred to PVDF membranes (IPVH00010, Millipore, USA). The membranes were incubated with anti-GFP antibody (1∶2000, P30010, Abmart, China) and goat anti-rabbit secondary antibody (1∶4000, M21002, Abmart, China) to identify target proteins. For the competition analyses, the immunoprecipitation complexes were mixed with anti-Flag antibody and different concentrations of the synthesized phosphorylated ligands or the nonphosphorylated ligands. The proteins were separated by SDS-PAGE, and the SH2 domain of Grb7 protein was analyzed using anti-GFP antibody. Western blot analysis was carried out using the Image J [37], the IC50 values were calculated by regression analyses using SPSS 17.0.
# [2] = tested on: EYFP-tagged Grb7 SH2 domain; assay: Bioluminescence Resonance Energy Transfer (BRET) in HEK293T cells; type: cell-based; conditions: 36 h after transfection, EYFP-Grb7 SH2 + mRLUC-tagged peptide, coelenterazine 5.9 µM, eighteen group ratios
# From the text: For the BRET assay, the EYFP fragment was generated by PCR amplification. The ErbB3-mRLUC plasmid was constructed by the Beijing Sino Biological Inc. The SH2 domain of Grb7 was fused to the EYFP fragment, and the nonphosphorylated peptides 10 and 41 were fused to the mRLUC fragment. The Grb7 SH2 domain sequence was inserted at the C-terminus of the EYFP tag.
# HEK293T cells at 70%–80% confluency were given fresh DMEM (high glucose) culture medium and transfected with plasmids using the calcium phosphate method. Samples were collected at 36 h after transfection.
# In BRET, the Renilla luciferase (mRLUC) is fused to the candidate protein, and the green fluorescent protein mutant (EYFP) is fused to the target protein. Interactions between the two fused proteins bring the luciferase and the green fluorescent protein into close proximity, which promotes resonance energy transfer from mRLUC to EYFP [38]. Then EYFP is […] at 530 nm, and the emission is used to determine the binding between the two interacting proteins. In this study, HEK293T cells were collected at 36 h after transfection, 100 µL of mixed cell suspension was added to the u-bottom 96-well microtiter plates (Corning, USA) before measurement. The measurement of bioluminescence, with rasters of 460/40 nm and 518/20 nm, was performed on Synergy4 Multi-Mode Microplates Readers (BioTek, USA). The BRET reaction was initiated by 5.9 µM coelenterazine (Promega, USA). Data were analyzed by one-factor analysis of variance using SPSS 17.0.
# [3] = tested on: Grb7 SH2 domain; assay: Yeast two-hybrid, Grb7 SH2 domain; type: cell-based; conditions: yeast strain CG1945, GAL4 BD-SH2 bait, SD/-Trp-His-Leu selection and three independent improved LacZ tests
# From the text: To see whether the conserved residues were required for association with the Grb7 SH2 domain, the peptide 10 was used as the mutation template to design three mutated peptides: the N-GIPT deletion mutation (10AM), the C-GIP deletion mutation (10BM) and the both N-GIPT and C-GIP deletion mutation (10CM).
# The ABL_1 and Grb2 plasmids were gifts from Professor Ruibao Ren (Brandeis University, USA), and the Grb7 (BC006535) and Grb14 cDNA (BC053559) plasmids were from the Proteintech Group. The inserted sequences of the SH2 domains were as follows: Grb7: N-[…]-C; Grb2: N-[…]-C; ABL_1: N-[…]-C; and Grb14: N-[…]-C.
# In the mutation assay, the control and mutation sequences were as follows:
# The GAL4 BD-SH2 fusion bait plasmids were transformed into the yeast strain CG1945 using the lithium acetate protocol. The transformants were grown on SD/-Trp plates and spread on SD/-Trp-His plates for self-activation estimation. Those transformants without background growth or growth inhibited by 3-amino-1, 2, 4-triazole were selected for the subsequent screening. Approximately 3.01×10^6 clones of the random peptide library (Protocol No. PT303921, Clontech, USA), as AD baits, were effectively transformed into yeast strain CG 1945 containing BD bait plasmids and used to be screened according to the MATCHMAKER Two-Hybrid System protocol (Cat. No. 630489, Clontech, USA). Plasmids of potential positive transformants selected on plates with SD/-Trp-His-Leu medium in the primary screening were isolated and retransformed into the CG1945 cells containing the corresponding SH2 bait plasmids. The improved LacZ assay was then performed. Clones that were positive for all of the reporter assays and confirmed by three independent improved LacZ tests were selected for specific interactions.
# [4] = biological target: T1, EGFP-Grb7 SH2; assay: co-IP; competition: synthetic peptide (0.0072, 0.036, 0.18 mM) added to the immunoprecipitation complexes of Grb7 SH2 domain and 41-mRLUC-3×Flag; Grb7 SH2 blotted with anti-GFP, bands scanned (ImageJ), IC50 by regression; conditions: one partner purified
molecule,measurement,setting,value
"VAVGIPTQPTTSSEPSPPSNPPWDPGRV [peptide 41-A, synthesized nonphosphorylated ligand containing the first twenty-two amino acid-motif of peptide 41]",interference with binding of the Grb7 SH2 domain to peptide 41,[1]; 0.0072 mM,did not significantly interfere
same,interference with binding of the Grb7 SH2 domain to peptide 41,[1]; 0.036 mM,did not significantly interfere
same,interference with binding of the Grb7 SH2 domain to peptide 41,[1]; 0.18 mM,nearly abolished
same,disruptive effect on the Grb7 SH2 domain/peptide 41 interaction,"[1]; Figure 3A, overall, concentration not given",even stronger than that of the pY (1180) ligand
same,"binding affinity to the Grb7 SH2 domain, comparison of 41-A and pY (1180)","[1]; in vitro competition, in words",at least comparable binding affinities to the Grb7 SH2 domain
"N-AGVESLYTPTTPTLLLTRPLPRGLRGW-C [peptide 10CM, both N-GIPT and C-GIP deletion mutation of peptide 10]",BRET luminescence ratio of 530/480 nm,[2],non-interacting
same,recognition by / interaction with the Grb7 SH2 domain,[3],None of the three mutations were recognized by the Grb7 SH2 domain
"N-AGVESLGIPNYTPTTPTLLLTRPLP RGLRGW-C (AGVESLGIPNYTPTTPTLLLTRPLPRGLRGW; left off: Gal4 activation domain (inferred: two-hybrid prey), end not stated, kept) [10BM, C-GIP deletion mutation of peptide 10]",recognition by / interaction with the Grb7 SH2 domain,[3],None of the three mutations were recognized by the Grb7 SH2 domain
"ErbB3: mRLUC-tagged ErbB3, expressed from ErbB3-mRLUC plasmid",BRET luminescence ratio of 530/480 nm,[2],strongest luminescence
"N-AGVESL YTPTTPTLLLTRPLPGIPRGLRGW-C [10AM, N-GIPT deletion mutation of peptide 10]",recognition by / interaction with the Grb7 SH2 domain,[3],None of the three mutations were recognized by the Grb7 SH2 domain
"N-GMWEGLEGGGVAGVESLGIPNYTPTTPTLLLTRPLPGIPRGLRGWSLLRCCRLLCRNSYITAAPKHHHPLQTSPRGSPGLQEFDIKLIDTVDLEGGPGTQFAL-C [peptide 10, nonphosphorylated peptide identified from random peptide library; mutation template]",BRET luminescence ratio of 530/480 nm,[2],significantly stronger
same,BRET luminescence ratio of 530/480 nm,[2]; listed as Peptide 10,slightly stronger BRET signals compared to peptide 41
B1,IC50,[4],18.8 µM
B2,IC50,[4],31.8 µM
